Data from patent US20250017940A1, “SELECTIVE PEPTIDOMIMETIC MODULATORS OF CAV2.2 (N-TYPE) VOLTAGE-GATED CALCIUM CHANNELS AND USES THEREOF” (New York University, priority 2023, published 2025).

Assays:
total Ca2+ currents = assay: Whole-cell patch-clamp, total Ca2+ currents in small-to-medium DRG neurons; format: cell-based, rat; conditions: 20 μM overnight
Description: (§1) Recordings were obtained from acutely dissociated DRG neurons as described earlier (Bellampalli et al., 2019). Patch-clamp recordings were performed at room temperature (22-24° C.). Currents were recorded using an EPC 10 Amplifier-HEKA (HEKA Elektronik, Ludwigshafen, Germany) linked to a computer with Patchmaster software. DRG neurons were incubated overnight (˜16-24 hours) with 20 μM of CBD3063.
For total calcium current (ICa^2+) recordings, the external solution consisted of the following (in mM): 110 N-methyl-D-glucamine, 10 BaCl2, 30 TEA-Cl, 10 HEPES, 10 glucose, and 0.001 TTX (pH 7.29 adjusted with TEA-OH, and mOsm/L=310). Patch pipettes were filled with an internal solution containing (in mM): 150 CsCl2, 10 HEPES, 5 Mg-ATP, and 5 BAPTA, (pH 7.2 adjusted with CsOH, and mOsm/L-305). Peak Ca^2+ current was acquired by applying 200-millisecond voltage steps from −70 to +60 mV in 10-mV increments from a holding potential of −90 mV to obtain the current-voltage (I-V) relation. To measure the different subtypes of Ca^2+ channels, DRGs were treated with a Cav inhibitor cocktail omitting the inhibitor specific to the subtype being tested (e.g., to measure Cav2.2 currents, ω-conotoxin GVIA is omitted): Nifedipine (10 μM, L-type), ω-Conotoxin-GVIA (500 nM, […]) (Feng, et al., 2001), SNX482 (200 nM, R-type) (Newcomb et al., 1998), ω-agatoxin (200 nM, P/Q-type) (Mintz et al., 1992), TTA-P2 (1 μM, T-type) (Choe et al., 2011).
(§2) Normalization of currents to each cell's capacitance (pF) was performed to allow for collection of current density data. For I-V curves, functions were fitted to data using a non-linear least squares analysis. I-V curves were fitted using double Boltzmann functions:
where x is the pre-pulse potential, V1/2 is the mid-point potential, and k is the corresponding slope factor for single Boltzmann functions. Double Boltzmann fits were used to describe the shape of the curve, not to imply the existence of separate channel populations. Numbers 1 and 2 simply indicate first and second mid-points; a along with g are fitting parameters.
(§3) Activation curves were obtained from the I-V curves by dividing the peak current at each depolarizing step by the driving force according to the equation: G=I/(Vmem-Erev), where I is the peak current, Vmem is the membrane potential and Erev is the reversal potential. The conductance (G) was normalized against the maximum conductance (Gmax). For total and the different subtypes of Ca^2+ currents, steady-state inactivation (SSI) curves were obtained by applying an H-infinity protocol that consisted of 1.5-seconds conditioning pre-pulses from −100 to +30 mV in 10-mV increments followed by a 20-millisecond test pulse to +10 mV. For Na^+ currents, SSI curves were obtained by applying an H-infinity protocol that consisted of 1-second conditioning pre-pulses from −120 to +10 mV in 10-mV increments followed by a 200-millisecond test pulse to +10 mV. Inactivation curves were obtained by dividing the peak current recorded at the test pulse by the maximum current (Imax). Activation and SSI curves were fitted with the Boltzmann equation.

[1] = test system: rat model of spared nerve injury (SNI); assay: Spared nerve injury (SNI) model, mechanical allodynia (von Frey paw withdrawal threshold); format: in vivo
Description: Rats were anesthetized with ketamine/xylazine 80/12 mg/kg intraperitoneally (i.p.) (Sigma-Aldrich, St. Louis, MO), and their head was placed in a stereotaxic frame. The cisterna magna was exposed and incised. As previously reported, an 8-cm catheter (PE-10; Stoelting, Wood Dale, IL) was implanted, terminating in the lumbar region of the spinal cord (Yaksh & Rudy, 1976). Catheters were sutured (using 3-0 silk sutures) into the deep muscle and externalized at the back of the neck. Autoclips were used to close the skin, and other surgeries were performed after a 5- to 7-day recovery period.
The neuropathic pain model induced by spared nerve injury (SNI) in rats was performed as previously described. Adult male rats (250 g, Envigo, Placentia, CA) were anesthetized with isoflurane (5% induction, 2% maintenance in 2 L/min air), and skin on the lateral surface of the left hind thigh was incised. Then, the biceps femoris muscle was dissected to expose the three terminal branches of the sciatic nerve. The common peroneal and tibial branches were tightly ligated with 4-0 silk and axotomized 2.0 mm distal to the ligation. Closure of the incision was made in two layers. The muscle was sutured once with 5-0 absorbable suture; skin was autoclipped. Animals were allowed to recover for 7 days before any testing. […]
Mechanical allodynia was assessed by measuring rats' paw withdrawal threshold in response to probing with a series of fine calibrated filaments (von Frey, Stoelting, Wood Dale, IL). Rats were placed in suspended plastic cages with wire mesh floor, and each von Frey filament was applied perpendicularly to the plantar surface of the paw. The “up-and-down” method (sequential increase and decrease of the stimulus strength) was used to determine the withdrawal threshold Dixon's nonparametric method was used for data analysis, as described by Chaplan et al., 1994. Data were expressed as the mean withdrawal threshold.

Na+ channels = assay: Whole-cell patch-clamp, total Na+ currents in DRG neurons; format: cell-based, rat
Description: as §1
For Na^+ current (INa^+) recordings, the external solution contained (in mM): 130 NaCl, 3 KCl, 30 tetraethylammonium chloride, 1 CaCl2, 0.5 CdCl2, 1 MgCl2, 10 D-glucose, and 10 HEPES (pH 7.3 adjusted with NaOH, and mOsm/L=324). Patch pipettes were filled with an internal solution containing (in mM): 140 CsF, 1.1Cs-EGTA, 10 NaCl, and 15 HEPES (pH 7.3 adjusted with CsOH, and mOsm/L=311). Peak Na^+ current was acquired by applying 150-millisecond voltage steps from −70 to +60 mV in 5-mV increments from a holding potential of −60 mV to obtain the current-voltage (I-V) relation.
as §2, §3

[2] = single intrathecal 0.3 μg/kg, 7 days after SNI, male rats
[3] = 20 μM overnight, mean ± SEM (n cells)

## CC(=O)N[C@@H]1CCCN(C(=O)NCCCNc2ccccn2)C1 [CBD3063, (3R)-3-acetamido-N-[3-(pyridin-2-ylamino)propyl]piperidine-1-carboxamide]
Total Ca2+ currents; +10 mV (DMSO: −93.23±10.40)
  peak total calcium current density: −49.84±6.17 pA/pF
Total Ca2+ currents; +10 mV, vs 0.1% DMSO
  reduction in Ca2+ currents at peak current density: ~46.54%
Total Ca2+ currents; mean ± SEM (n cells)
  Total Ca2+ currents, activation V1/2: 0.971 ± 2.338 (16) mV
  Total Ca2+ currents, activation k (slope factor): 11.004 ± 2.181 (16)
  Total Ca2+ currents, inactivation V1/2: −20.944 ± 3.182 (16) mV
  Total Ca2+ currents, inactivation k (slope factor): −14.132 ± 2.880 (16)
Total Ca2+ currents; normalized to 0.1% DMSO control (1.00±0.06)
  normalized peak total ICa2+ density: 0.51±0.04 ratio to DMSO control
[1]; repeated i.t. 0.3 μg/kg once a day for 14 days
  tolerance (loss of antinociception): without any tolerance
[1]; repeated i.t. 0.3 μg/kg, rats with chronic neuropathic pain
  duration of reversal of mechanical allodynia with repeated intrathecal dosage: > 14 days
[1]; repeated i.t. injection 0.3 μg/kg once a day for 14 days (DMSO: 3.37±0.86)
  area under the curve of paw withdrawal threshold: 47.26±8.22
[1]; single i.t. injection 0.3 μg/kg, 0.5 to 36 hours (DMSO: 7.650±0.84)
  area under the curve of paw withdrawal threshold: 57.05±3.84
[1]; [2]
  duration of reversal of mechanical allodynia: up to 36 hours
  start of reversal of mechanical allodynia post-injection: 60 min
Na+ channels; 20 μM overnight (DMSO: −455.7±78.70)
  peak Na+ current density: −455.0±60.79 pA/pF
Na+ channels; [3]
  Na+ currents, activation V1/2: −21.738 ± 0.852 (12) mV
  Na+ currents, activation k (slope factor): 4.749 ± 0.744 (12)
  Na+ currents, inactivation V1/2: −32.552 ± 2.084 (12) mV
  Na+ currents, inactivation k (slope factor): −12.003 ± 1.936 (12)
